Where “and” joins values, the source holds several entries; their conditions need not be identical. Equal entries are not always repeated. Where two headings read alike, the source gives them in different places.
Legend:
[1] = target: T1, AHR (Mus musculus, UniProt P30561); experiment: In vitro assay 3: antagonism in mouse cell line (AHR transactivation, firefly luciferase reporter, kynurenic acid prestimulated); assay type: cell-based
T1 sequence (P30561 1-848 P471L/N533S/M589L): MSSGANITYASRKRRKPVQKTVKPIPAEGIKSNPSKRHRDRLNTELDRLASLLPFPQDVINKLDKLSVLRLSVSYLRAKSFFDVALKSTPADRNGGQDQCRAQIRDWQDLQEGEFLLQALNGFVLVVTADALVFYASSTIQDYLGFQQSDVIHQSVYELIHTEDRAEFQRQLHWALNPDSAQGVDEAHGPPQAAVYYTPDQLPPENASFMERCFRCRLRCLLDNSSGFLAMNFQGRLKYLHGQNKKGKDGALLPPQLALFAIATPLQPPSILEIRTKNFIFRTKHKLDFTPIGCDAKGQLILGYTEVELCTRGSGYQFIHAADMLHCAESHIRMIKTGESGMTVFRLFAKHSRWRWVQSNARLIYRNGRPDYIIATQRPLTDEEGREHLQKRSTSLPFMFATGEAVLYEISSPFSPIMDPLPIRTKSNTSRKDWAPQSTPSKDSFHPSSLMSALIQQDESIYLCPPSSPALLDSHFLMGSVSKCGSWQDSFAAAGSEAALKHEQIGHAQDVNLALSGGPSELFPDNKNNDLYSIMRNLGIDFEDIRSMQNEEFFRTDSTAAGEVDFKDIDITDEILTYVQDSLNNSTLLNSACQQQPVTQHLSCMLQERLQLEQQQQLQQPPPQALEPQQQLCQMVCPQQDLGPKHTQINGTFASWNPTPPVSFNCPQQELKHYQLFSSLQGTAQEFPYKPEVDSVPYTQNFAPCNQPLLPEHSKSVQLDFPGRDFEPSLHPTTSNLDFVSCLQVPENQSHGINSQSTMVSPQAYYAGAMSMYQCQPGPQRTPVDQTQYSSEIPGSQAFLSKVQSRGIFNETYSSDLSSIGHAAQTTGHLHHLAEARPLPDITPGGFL
Summary of the method: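 Mouse cells stably carrying a DRE-driven AHR-inducible firefly luciferase reporter were prestimulated with the endogenous agonist kynurenic acid before compound addition. Luciferase read by SteadyGlo; cells without kynurenic acid served as full-inhibition control, with normalization to positive and negative controls. Repeat tests reported as mean or median.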

[2] = target: T2, AHR (Homo sapiens, UniProt P35869); experiment: In vitro assay 1: antagonism in human cell line (AHR transactivation, firefly luciferase reporter, kynurenic acid prestimulated); assay type: cell-based; conditions: AHR Antagonism Human IC50 [M]
T2 construct: U87 MG glioblastoma cells (ATCC #HTB-14) endogenously expressing AHR; endogenous in cells; host or cells: U87 MG glioblastoma cells (ATCC #HTB-14)
T2 sequence (P35869 11-848): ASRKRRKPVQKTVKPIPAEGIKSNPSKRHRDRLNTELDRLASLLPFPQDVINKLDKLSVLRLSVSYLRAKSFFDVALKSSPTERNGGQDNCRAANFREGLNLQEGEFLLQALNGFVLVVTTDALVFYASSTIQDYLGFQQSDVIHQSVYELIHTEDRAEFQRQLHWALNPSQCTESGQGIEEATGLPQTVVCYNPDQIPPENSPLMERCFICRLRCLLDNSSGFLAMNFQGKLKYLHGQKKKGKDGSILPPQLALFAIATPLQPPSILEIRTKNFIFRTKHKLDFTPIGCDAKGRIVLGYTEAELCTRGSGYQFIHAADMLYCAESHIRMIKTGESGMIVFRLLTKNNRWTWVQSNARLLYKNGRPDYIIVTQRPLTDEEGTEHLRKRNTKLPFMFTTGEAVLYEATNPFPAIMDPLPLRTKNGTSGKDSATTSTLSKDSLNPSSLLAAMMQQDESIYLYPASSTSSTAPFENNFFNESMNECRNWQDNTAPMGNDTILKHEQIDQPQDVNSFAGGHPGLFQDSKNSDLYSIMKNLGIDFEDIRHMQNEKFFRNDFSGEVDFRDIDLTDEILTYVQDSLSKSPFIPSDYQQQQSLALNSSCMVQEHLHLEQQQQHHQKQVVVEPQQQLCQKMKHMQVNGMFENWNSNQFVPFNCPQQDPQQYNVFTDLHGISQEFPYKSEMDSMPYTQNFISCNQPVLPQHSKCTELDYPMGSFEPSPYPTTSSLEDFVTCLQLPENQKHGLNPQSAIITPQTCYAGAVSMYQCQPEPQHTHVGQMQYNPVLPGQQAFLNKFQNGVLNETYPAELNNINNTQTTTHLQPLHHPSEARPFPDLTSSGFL
Summary of the method: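 U87 MG + DRE-firefly/constitutive-Renilla stable reporters; kynurenic acid prestim; dual-luc read; Renilla = tox; normalized vs pos/neg controls (pos: 150 μM KYNA + 5 μM staurosporine).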

[3] = read-out: AHR Antagonism Mouse IC50, mouse Hepa 1c1c7 cells, 200 μM kynurenic acid, 20 hours
[4] = mouse Hepa 1c1c7 cells, 200 μM kynurenic acid, 20 hours, read-out: AHR Antagonism Mouse IC50

O=C1NCCNC[C@H]1Nc1nc2cccc(C(F)(F)F)c2c2nc(-c3cccc(F)c3)nn12 [Example 288, (6R)-6-{[2-(3-fluorophenyl)-10-(trifluoromethyl)[1,2,4]triazolo[1,5-c]quinazolin-5-yl]amino}-1,4-diazepan-5-one]
IC50 [1, 3]: 887 nM
IC50 [2]: > 2e-05 M

COc1cccc(-c2nc3c4c(C)cccc4nc(N[C@@H]4CNCCNC4=O)n3n2)c1 [Example 289, (6R)-6-{[2-(3-methoxyphenyl)-10-methyl[1,2,4]triazolo[1,5-c]quinazolin-5-yl]amino}-1,4-diazepan-5-one]
IC50 [1, 4]: 269 nM
IC50 [2]: 1.12e-06 M

COc1ccc(-c2nc3c4c(OC)cccc4nc(N[C@@H]4CNCCNC4=O)n3n2)cc1 [Example 291, (6R)-6-{[10-methoxy-2-(4-methoxyphenyl)[1,2,4]triazolo[1,5-c]quinazolin-5-yl]amino}-1,4-diazepan-5-one]
IC50 [1, 4]: 2680 nM
IC50 [2]: 2.65e-06 M

O=C1NCCNCC1Nc1nc2cccc(C3CC3)c2c2nc(-c3cccc(F)c3)nn12 (centres unmarked) [Example 295, 6-{[10-cyclopropyl-2-(3-fluorophenyl)[1,2,4]triazolo[1,5-c]quinazolin-5-yl]amino}-1,4-diazepan-5-one]
IC50 [1, 4]: 2910 nM
IC50 [2]: > 2e-05 M

COCc1noc(-c2nc3c4ccccc4nc(N[C@@H]4CCCCNC4=O)n3n2)n1 [Example 303, (3R)-3-({2-[3-(Methoxymethyl)-1,2,4-oxadiazol-5-yl][1,2,4]triazolo[1,5-c]quinazolin-5-yl}amino)azepan-2-one]
IC50 [1, 4]: 293 nM
IC50 [2]: 4.52e-07 M

CN(C)Cc1noc(-c2nc3c4ccccc4nc(N[C@@H]4CCCCNC4=O)n3n2)n1 [Example 304, (3R)-3-[(2-{3-[(Dimethylamino)methyl]-1,2,4-oxadiazol-5-yl}[1,2,4]triazolo[1,5-c]quinazolin-5-yl)amino]azepan-2-one]
IC50 [1, 4]: 1830 nM
IC50 [2]: 2.86e-06 M

O=C1NCCCC[C@H]1Nc1nc2ccccc2c2nc(-c3nc(CCO)no3)nn12 [Example 305, (3R)-3-({2-[3-(2-Hydroxyethyl)-1,2,4-oxadiazol-5-yl][1,2,4]triazolo[1,5-c]quinazolin-5-yl}amino)azepan-2-one]
IC50 [1, 3]: 178 nM
IC50 [2]: 2.97e-07 M

CS(=N)(=O)c1ccc(-c2nc3c4ccccc4nc(N[C@@H]4CCCCNC4=O)n3n2)cc1 (stereo partly drawn) [Example 306, (3R)-3-({2-[4-(S-methylsulfonimidoyl)phenyl][1,2,4]triazolo[1,5-c]quinazolin-5-yl}amino)azepan-2-one]
IC50 [1, 4]: 31.2 nM
IC50 [2]: 1.09e-07 M

O=C1NCCCC[C@H]1Nc1nc2ccccc2c2nc(-c3cccc(OC(F)(F)F)c3)nn12 [Example 309, (3R)-3-({2-[3-(Trifluoromethoxy)phenyl][1,2,4]triazolo[1,5-c]quinazolin-5-yl}amino)azepan-2-one]
IC50 [1, 4]: 1.97 nM
IC50 [2]: 2.47e-08 M

O=C1NCC[C@H]1Nc1nc2ccccc2c2nc(-c3cccc(OC(F)(F)F)c3)nn12 [Example 310, (3R)-3-({2-[3-(trifluoromethoxy)phenyl][1,2,4]triazolo[1,5-c]quinazolin-5-yl}amino)pyrrolidin-2-one]
IC50 [1, 4]: 60.7 nM
IC50 [2]: 9.98e-08 M

O=C1NCCC[C@H]1Nc1nc2ccccc2c2nc(-c3cccc(OC(F)(F)F)c3)nn12 [Example 311, (3R)-3-({2-[3-(trifluoromethoxy)phenyl][1,2,4]triazolo[1,5-c]quinazolin-5-yl}amino)piperidin-2-one]
IC50 [1, 4]: 111 nM
IC50 [2]: 1.36e-07 M

CN1CC[C@@H](Nc2nc3ccccc3c3nc(-c4cccc(OC(F)(F)F)c4)nn23)C1=O [Example 312, (3R)-1-methyl-3-({2-[3-(trifluoromethoxy)phenyl][1,2,4]triazolo[1,5-c]quinazolin-5-yl}amino)pyrrolidin-2-one]
IC50 [1, 4]: 22 nM
IC50 [2]: 7.19e-08 M

NC(=O)[C@@H](CO)Nc1nc2ccccc2c2nc(-c3cccc(OC(F)(F)F)c3)nn12 [Example 313, N^2-{2-[3-(trifluoromethoxy)phenyl][1,2,4]triazolo[1,5-c]quinazolin-5-yl}-D-serinamide]
IC50 [1, 4]: 99.2 nM
IC50 [2]: 1.06e-07 M

CC[C@@H](Nc1nc2ccccc2c2nc(-c3cccc(OC(F)(F)F)c3)nn12)C(N)=O [Example 314, (2R)-2-({2-[3-(trifluoromethoxy)phenyl][1,2,4]triazolo[1,5-c]quinazolin-5-yl}amino)butanamide]
IC50 [1, 4]: 0.922 nM
IC50 [2]: 6.9e-09 M

O=C1NCCCC[C@@H]1Nc1nc2ccccc2c2nc(-c3cccc(OC(F)(F)F)c3)nn12 [Example 315, (3S)-3-({2-[3-(trifluoromethoxy)phenyl][1,2,4]triazolo[1,5-c]quinazolin-5-yl}amino)azepan-2-one]
IC50 [1, 4]: 50.8 nM
IC50 [2]: 2.06e-07 M

CCC[C@@H](Nc1nc2ccccc2c2nc(-c3cccc(OC(F)(F)F)c3)nn12)C(=O)NC [Example 316, N-methyl-N^2-{2-[3-(trifluoromethoxy)phenyl][1,2,4]triazolo[1,5-c]quinazolin-5-yl}-D-norvalinamide]
IC50 [1, 4]: 3.76 nM
IC50 [2]: 2.07e-08 M

CCNC(=O)C(CC)Nc1nc2ccccc2c2nc(-c3cccc(OC(F)(F)F)c3)nn12 (centres unmarked) [Example 318, N-ethyl-2-({2-[3-(trifluoromethoxy)phenyl][1,2J4]triazolo[1,5-c]quinazolin-5-yl}amino)butanamide]
IC50 [1, 4]: 0.603 nM
IC50 [2]: 1.29e-08 M

CCCNC(=O)[C@@H](C)Nc1nc2ccccc2c2nc(-c3cccc(OC(F)(F)F)c3)nn12 [Example 321, N-propyl-N2-{2-[3-(trifluoromethoxy)phenyl][1,2,4]triazolo[1,5-c]quinazolin-5-yl}-D-alaninamide]
IC50 [1, 4]: 12.4 nM
IC50 [2]: 2.06e-08 M

C[C@@H](Nc1nc2ccccc2c2nc(-c3cccc(OC(F)(F)F)c3)nn12)C(=O)NCCN(C)C [Example 325, N-[2-(dimethylamino)ethyl]-N^2-{2-[3-(trifluoromethoxy)phenyl][1,2,4]triazolo[1,5-c]quinazolin-5-yl}-D-alaninamide]
IC50 [1, 4]: 677 nM
IC50 [2]: 1.49e-05 M and 1.56e-05 M and > 2e-05 M

NC(=O)[C@@H](CO)Nc1nc2ccccc2c2nc(-c3ccc(OC(F)(F)F)cc3)nn12 [Example 329, N^2-{2-[4-(trifluoromethoxy)phenyl][1,2,4]triazolo[1,5-c]quinazolin-5-yl}-D-serinamide]
IC50 [1, 4]: 2.89 nM
IC50 [2]: 5.94e-09 M

COc1cscc1-c1nc2c3ccccc3nc(N[C@@H]3CCCCNC3=O)n2n1 [Example 333, (3R)-3-{[2-(4-Methoxythiophen-3-yl)[1,2,4]triazolo[1,5-c]quinazolin-5-yl]amino}azepan-2-one]
IC50 [1, 4]: 28 nM
IC50 [2]: 2.74e-08 M

COc1cscc1-c1nc2c3ccccc3nc(N[C@H]3CCCCNC3=O)n2n1 [Example 336, (3S)-3-{[2-(4-methoxythiophen-3-yl)[1,2,4]triazolo[1,5-c]quinazolin-5-yl]amino}azepan-2-one]
IC50 [1, 4]: 434 nM
IC50 [2]: 8.51e-06 M

From patent US20230113037A1 (Bayer Aktiengesellschaft, priority 2019, published 2023)
